Earlier results on one molecule are cited in US20030082215A1 (priority 1999, published 2003).

Read-outs that look alike come from different tables or passages of the source.

For orientation: bioavailability means the share of a dose that reaches the circulation, judged against a reference dose that is usually intravenous. As for `CC(C)OC(=O)C(C)(C)Oc1ccc(C(=O)c2ccc(Cl)cc2)cc1` [fenofibrate], the bioavailability is reported as 89% (conventional gelatin capsule form, after meals); 26% (conventional gelatin capsule form, on an empty stomach); around 30% (gelatin capsule containing a 300 mg dose, healthy volunteers).
